The values below come from patent US8604038B2, “Pyrrolidine derived beta 3 adrenergic receptor agonists” (Merck Sharp & Dohme Corp., priority 2009, dated 2013).

The target in one assay is T1, human β3 adrenergic receptor (Homo sapiens, UniProt P13945).
T1 construct: expressed in transfected cells; host or cells: CHO (Chinese hamster ovary) cells, stably transfected
T1 sequence (P13945 whole entry): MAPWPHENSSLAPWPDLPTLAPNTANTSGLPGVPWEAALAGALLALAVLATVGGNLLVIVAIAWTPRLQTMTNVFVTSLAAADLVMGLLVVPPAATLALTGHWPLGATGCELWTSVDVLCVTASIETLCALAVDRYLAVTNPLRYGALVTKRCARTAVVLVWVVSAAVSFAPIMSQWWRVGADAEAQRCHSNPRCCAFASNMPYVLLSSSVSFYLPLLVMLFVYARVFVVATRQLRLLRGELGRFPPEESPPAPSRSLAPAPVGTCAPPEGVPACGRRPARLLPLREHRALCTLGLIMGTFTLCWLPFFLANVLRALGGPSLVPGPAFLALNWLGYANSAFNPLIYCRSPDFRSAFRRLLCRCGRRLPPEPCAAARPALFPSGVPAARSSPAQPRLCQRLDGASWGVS
As to the kind of experiment: Beta-3 agonist in vitro functional assay (cAMP production, LANCE, transfected CHO cells). The settings on record: Table 1, CHO cells with cloned β3 receptor, ligands titrated 10^-10 M to 10^-5 M, read-out: Human β3 agonist functional activity. In kind it is cell-based. The method, then: Functional Assay: For compounds in examples 1-50, cAMP production in response to ligand is measured according to Barton, et al. (1991, Agonist-induced desensitization of D2 dopamine receptors in human Y-79 retinoblastoma cells. Mol. Pharmacol. […]:650-658) modified as follows. The cAMP production is measured using a homogenous time-resolved fluorescence resonance energy transfer immunoassay (LANCE™, Perkin Elmer) according to the manufacture's instructions. Chinese hamster ovary (CHO) cells, stably transfected with the cloned β-adrenergic receptor (β1, β2 or β3) are harvested after 3 days of subculturing. Harvesting of cells is done with Enzyme-free Dissociation Media (Specialty Media). Cells are then counted and resuspended in assay buffer (Hank's Balanced salt solution supplemented with 5 mM HEPES, […]) containing a phosphodiesterase inhibitor (IBMX, 0.6 mM). The reaction is initiated by mixing 6,000 cells in 6 μL with 6 μL Alexa Fluor labeled cAMP antibody (LANCE™ kit) which is then added to an assay well containing 12 μL of compound (diluted in assay buffer to 2× final concentration). The reaction proceeds for 30 minutes at RT and is terminated by the addition of 24 ul detection buffer (LANCE™ kit). The assay plate is then incubated for 1 h at RT and time-resolved fluorescence measured on a Perkin Elmer Envision reader or equivalent. The unknown cAMP level is determined by comparing fluorescence levels to a cAMP standard curve.
The non-selective, full agonist β-adrenergic ligand isoproterenol is used at all three receptors to determine maximal stimulation. The human β3 adrenergic receptor (AR) selective ligand (S)-N-[4-[2-[[2-hydroxy-3-(4-hydroxyphenoxy)propyl]amino]ethyl]-phenyl]-4-iodobenzenesulfonamide is used as a control in all assays. […] The EC50 is defined as the concentration of compound that gives 50% activation of its own maximum. Data are analyzed using Microsoft Excel and Graphpad Prism or an internally developed data analysis software package.
The EC50 is defined as the concentration of compound that gives 50% activation of its own maximum. Functional antagonist assays are performed similar to described above; however, unknown ligands are titrated at β-adrenergic receptor subtypes 1 and 2 at a final concentration in the assay of 10^-12 M to 10^-5 M in the presence of 10^-9 M full agonist β-adrenergic ligand isoproterenol. The EC50 is defined as the concentration of compound that gives 50% inhibition of the full agonist response. Data are analyzed using Microsoft Excel and Graphpad Prism or an internally developed data analysis software package.
(In general: cAMP levels reflect the balance of adenylyl cyclase and phosphodiesterase activity.)
In the case of `O=C(NCc1ccccn1)c1ccc(C[C@@H]2CC[C@H]([C@H](O)c3ccccc3)N2)cc1` [Example 2], the EC50 was in the range of 10 to 99.9 nM.

As for `Cc1cc(C)nc(CNC(=O)c2ccc(C[C@@H]3CC[C@H]([C@H](O)c4ccccc4)N3)cc2)n1` [Example 3], the EC50 lay in the range of 10 to 99.9 nM. The same measure, in the same setting: under `O=C(NCc1ncccc1F)c1ccc(C[C@@H]2CC[C@H]([C@H](O)c3ccccc3)N2)cc1` [Example 4] stands 10 to 99.9 nM; under `O=C(NCc1cc(Cl)ccn1)c1ccc(C[C@@H]2CC[C@H]([C@H](O)c3ccccc3)N2)cc1` [Example 5], 10 to 99.9 nM. Turning to `O=C(NCc1cccc(Cl)n1)c1ccc(C[C@@H]2CC[C@H]([C@H](O)c3ccccc3)N2)cc1` [Example 6], the EC50 was 10 to 99.9 nM. Still for that read-out and setting: under `COC(=O)c1ccnc(CNC(=O)c2ccc(C[C@@H]3CC[C@H]([C@H](O)c4ccccc4)N3)cc2)c1` [Example 7] stands 10 to 99.9 nM; under `O=C(NCc1cccnn1)c1ccc(C[C@@H]2CC[C@H]([C@H](O)c3ccccc3)N2)cc1` [Example 8], 100 to 999 nM.

In the case of `O=C(NCc1ncccn1)c1ccc(C[C@@H]2CC[C@H]([C@H](O)c3ccccc3)N2)cc1` [Example 9], the EC50 was 100 to 999 nM. On the same count and under the same terms, under `O=C(NCc1cnccn1)c1ccc(C[C@@H]2CC[C@H]([C@H](O)c3ccccc3)N2)cc1` [Example 10] stands 100 to 999 nM. For the compound `CC(NC(=O)c1ccc(C[C@@H]2CC[C@H]([C@H](O)c3ccccc3)N2)cc1)c1cnccn1` (stereo partly drawn) [Example 11], the EC50 was 999 to 3000 nM. The same measure, in the same setting: under `O=C(NCc1ccncn1)c1ccc(C[C@@H]2CC[C@H]([C@H](O)c3ccccc3)N2)cc1` [Example 12] stands 10 to 99.9 nM; under `Cc1cccnc1CNC(=O)c1ccc(C[C@@H]2CC[C@H]([C@H](O)c3ccccc3)N2)cc1` [Example 13], 10 to 99.9 nM; under `O=C(NCc1nccc(C(F)(F)F)n1)c1ccc(C[C@@H]2CC[C@H]([C@H](O)c3ccccc3)N2)cc1` [Example 14], 10 to 99.9 nM. Still for that read-out and setting: with `O=C(NCc1nccc(C2CC2)n1)c1ccc(C[C@@H]2CC[C@H]([C@H](O)c3ccccc3)N2)cc1` [Example 15] the figure was 10 to 99.9 nM. As for `Cc1cc(C2CC2)nc(CNC(=O)c2ccc(C[C@@H]3CC[C@H]([C@H](O)c4ccccc4)N3)cc2)n1` [Example 16], the EC50 lay within 10 to 99.9 nM. Still for that read-out and setting: with `Cc1cccc(CNC(=O)c2ccc(C[C@@H]3CC[C@H]([C@H](O)c4ccccc4)N3)cc2)n1` [Example 17] the figure was 100 to 999 nM; with `Cc1ccnc(CNC(=O)c2ccc(C[C@@H]3CC[C@H]([C@H](O)c4ccccc4)N3)cc2)n1` [Example 18], 10 to 99.9 nM. Take `Cc1ccnc(CNC(=O)c2ccc(C[C@@H]3CC[C@H]([C@H](O)c4ccccc4)N3)cc2)c1` [Example 19]: the EC50 was 10 to 99.9 nM. In the case of `Cc1nccnc1CNC(=O)c1ccc(C[C@@H]2CC[C@H]([C@H](O)c3ccccc3)N2)cc1` [Example 20], the EC50 was in the range of 10 to 99.9 nM. As to `O=C(NCc1nccc(-c2ccccc2)n1)c1ccc(C[C@@H]2CC[C@H]([C@H](O)c3ccccc3)N2)cc1` [Example 21], the EC50 lay within 10 to 99.9 nM.

The assay is the same for the next values; noted with them: Table 3, CHO cells with cloned β3 receptor, ligands titrated 10^-12 M to 10^-5 M, read-out: Human β3 agonist functional activity.
Consider `CN(C(=O)c1ccc(CC2CCC(C(O)c3ccccc3)N2)cc1)C(c1ccccn1)C1CC1` (mixture of isomers) [Example 96], for which the EC50 lay within 100 to 999 nM.

`CC(C1COc2ccccc2O1)N(C)C(=O)c1ccc(C[C@@H]2CC[C@H]([C@H](O)c3ccccc3)N2)cc1` (single isomer, unassigned) [Example 94]: the EC50 was in the range of 10 to 99.9 nM. On to `CC(C1COc2ccccc2O1)N(C)C(=O)c1ccc(C[C@@H]2CC[C@H]([C@H](O)c3ccccc3)N2)cc1` (single isomer, unassigned) [Example 95], for which the EC50 fell in the range of 100 to 999 nM.

The assay is the same for the next values; noted with them: given as a range, CHO cells with cloned β3 receptor, read-out: human Beta-3 agonist functional activity.
For `O=C(NCc1nc(-c2ccccc2)n[nH]1)c1ccc(C[C@@H]2CC[C@H]([C@H](O)c3ccccc3)N2)cc1` [Example 1, 4-({(2S,5R)-5-[(R)-hydroxy(phenyl)methyl]pyrolidin-2-yl}methyl)-N-[(3-phenyl-1H-1,2,4-triazol-5-yl)methyl]benzamide], the EC50 was 1 to 9.9 nM.
